Source: patent US20220144812A1, “QUINOLINE DERIVATIVES AND THEIR USE FOR THE TREATMENT OF CANCER” (Epizyme, Inc., priority 2019, published 2022)

Assays:
647V cells = experiment: High throughput proliferation (HTP) assay; assay type: cell-based; details: Homo sapiens, 647-V, high throughput proliferation; read-out: CREBBP HTP IC50
Summary of the method: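 Exponentially growing 647V cells in DMEM with 15% FBS were treated in triplicate with increasing compound concentrations at 37° C, 5% CO2. Viable cell number was read by CellTiter-Glo luminescence on day 7; IC50 in micromolar.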

CREBBP (1084-1701) = target: T1, CREBBP (1084-1701) (Homo sapiens, UniProt Q92793); experiment: Biochemical assay for CREBBP (1084-1701), SAMDI; details: SAMDI, read-out: CREBBP Biochemistry IC50
T1 construct: measured in the following biochemical assay using CREBBP (1084-1701); purchased
T1 sequence (Q92793 1084-1701): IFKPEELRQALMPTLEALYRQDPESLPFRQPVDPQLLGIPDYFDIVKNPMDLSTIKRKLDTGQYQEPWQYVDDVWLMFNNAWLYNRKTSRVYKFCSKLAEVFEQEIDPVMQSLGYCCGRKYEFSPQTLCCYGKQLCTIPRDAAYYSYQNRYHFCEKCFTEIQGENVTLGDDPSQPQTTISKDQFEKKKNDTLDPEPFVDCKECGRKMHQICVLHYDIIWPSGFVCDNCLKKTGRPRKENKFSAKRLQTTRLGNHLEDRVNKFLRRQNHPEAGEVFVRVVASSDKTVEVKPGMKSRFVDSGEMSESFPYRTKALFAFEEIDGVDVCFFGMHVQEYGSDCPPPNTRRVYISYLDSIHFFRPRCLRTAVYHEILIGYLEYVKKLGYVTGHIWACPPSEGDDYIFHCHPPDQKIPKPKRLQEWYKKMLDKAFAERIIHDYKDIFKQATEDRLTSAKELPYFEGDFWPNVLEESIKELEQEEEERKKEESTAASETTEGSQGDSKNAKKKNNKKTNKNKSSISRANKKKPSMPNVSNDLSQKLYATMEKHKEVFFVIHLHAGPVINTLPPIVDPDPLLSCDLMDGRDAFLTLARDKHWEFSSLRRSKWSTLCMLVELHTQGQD
Summary of the method: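 CREBBP (1084-1701) preincubated with compound 30 min at RT, then substrate mix (biotin-H3 11-25 K14R/K23R peptide, acetyl-CoA) added for 30 min at RT. Reaction stopped with formic acid, neutralised with sodium bicarbonate. Peptide acetylation read by SAMDI mass spectrometry to derive IC50.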

VMCUB1 bladder cell line = experiment: 7-day proliferation assay, VMCUB1; assay type: cell-based; details: Homo sapiens, VM-CUB-1, 168 h; VMCUB1, 7 days, CellTiter-Glo
Method: (§1) This example describes methods and materials for 7-day proliferation assay.
(§2) A total of 22 bladder cell lines were used (see table below). Cell lines were cultured in recommended growth media according to supplier.
(§3) Cells were in culture media at a density optimized for a 7-day culture in a final volume of 150 μL per well in white opaque 96-well plates. Cells were allowed to adhere for several hours (4-6 h) then compounds were added with HPD300 Digital Dispenser and placed into the incubator at 37° C., 5% CO2 for 7 days. After 7 days incubation, 100 μL of CellTiter-Glo® Luminescent Cell Viability Assay (Promega-G7573) reagents were added per well. After 20 minutes incubation luminescence was measured in plate reader. IC50 were calculated from a non-linear logarithmic growth curve.
(§4) IC50 values (nanomolar (nM)) are summarized in the table below, which depicts the inhibitory effect of certain compounds in bladder cell lines.

647V bladder cell line = experiment: 7-day proliferation assay, 647V; assay type: cell-based; details: Homo sapiens, 168 h, 7 days, CellTiter-Glo
Method: as §1, §2, §3, §4

KU1919 bladder cell line = experiment: 7-day proliferation assay, KU1919; assay type: cell-based; details: Homo sapiens, KU-19-19, 168 h; KU1919, 7 days, CellTiter-Glo
Method: as §1, §2, §3, §4

5637 bladder cell line = experiment: 7-day proliferation assay, 5637; assay type: cell-based; details: 168 h; 5637, 7 days, CellTiter-Glo
Method: as §1, §2, §3, §4

BC3C bladder cell line = experiment: 7-day proliferation assay, BC3C; assay type: cell-based; details: 168 h, 7 days, CellTiter-Glo
Method: as §1, §2, §3, §4

[1] = tested on: BFTC905 bladder cell line; experiment: 7-day proliferation assay, BFTC905; assay type: cell-based; details: Homo sapiens, BFTC-905, 168 h; BFTC905, 7 days, CellTiter-Glo
Method: as §1, §2, §3, §4

CAL29 bladder cell line = experiment: 7-day proliferation assay, CAL29; assay type: cell-based; details: 168 h; CAL29, 7 days, CellTiter-Glo
Method: as §1, §2, §3, §4

[2] = tested on: HB-CLS-2 bladder cell line; experiment: 7-day proliferation assay, HB-CLS-2; assay type: cell-based; details: 168 h; HB-CLS-2, 7 days, CellTiter-Glo
Method: as §1, §2, §3, §4

JMSU1 bladder cell line = experiment: 7-day proliferation assay, JMSU1; assay type: cell-based; details: JMSU-1, 168 h; JMSU1, 7 days, CellTiter-Glo
Method: as §1, §2, §3, §4

KMBC2 bladder cell line = experiment: 7-day proliferation assay, KMBC2; assay type: cell-based; details: 168 h; KMBC2, 7 days, CellTiter-Glo
Method: as §1, §2, §3, §4

RT112 bladder cell line = experiment: 7-day proliferation assay, RT112; assay type: cell-based; details: Homo sapiens, RT-112, 168 h; RT112, 7 days, CellTiter-Glo
Method: as §1, §2, §3, §4

RT4 bladder cell line = experiment: 7-day proliferation assay, RT4; assay type: cell-based; details: 168 h; RT4, 7 days, CellTiter-Glo
Method: as §1, §2, §3, §4

SW780 bladder cell line = experiment: 7-day proliferation assay, SW780; assay type: cell-based; details: Homo sapiens, 168 h; SW780, 7 days, CellTiter-Glo
Method: as §1, §2, §3, §4

TCCSUP bladder cell line = experiment: 7-day proliferation assay, TCCSUP; assay type: cell-based; details: Homo sapiens, TCC-SUP, 168 h, 7 days, CellTiter-Glo
Method: as §1, §2, §3, §4

UBLC1 bladder cell line = experiment: 7-day proliferation assay, UBLC1; assay type: cell-based; details: 168 h; UBLC1, 7 days, CellTiter-Glo
Method: as §1, §2, §3, §4

CLS439 bladder cell line = experiment: 7-day proliferation assay, CLS439; assay type: cell-based; details: 168 h; CLS439, 7 days, CellTiter-Glo
Method: as §1, §2, §3, §4

| Structure (SMILES) | IC50 (647V cells) [nM] | IC50 (CREBBP (1084-1701)) [nM] | IC50 (VMCUB1 bladder cell line) [nM] | IC50 (647V bladder cell line) [nM] | IC50 (KU1919 bladder cell line) [nM] | IC50 (5637 bladder cell line) [nM] | IC50 (BC3C bladder cell line) [nM] | IC50 [1] [nM] | IC50 (CAL29 bladder cell line) [nM] | IC50 [2] [nM] | IC50 (JMSU1 bladder cell line) [nM] | IC50 (KMBC2 bladder cell line) [nM] | IC50 (RT112 bladder cell line) [nM] | IC50 (RT4 bladder cell line) [nM] | IC50 (SW780 bladder cell line) [nM] | IC50 (TCCSUP bladder cell line) [nM] | IC50 (UBLC1 bladder cell line) [nM] | IC50 (CLS439 bladder cell line) [nM] |
| --- | --- | --- | --- | --- | --- | --- | --- | --- | --- | --- | --- | --- | --- | --- | --- | --- | --- | --- |
| CCn1ncc(CN(C)C(=O)c2cc(-c3ccc(NCCNC)c(C)n3)nc3ccc(Cl)cc23)c1C [Compound 3, 6-chloro-N-[(1-ethyl-5-methyl-1H-pyrazol-4-yl)methyl]-N-methyl-2-(6-methyl-5-{[2-(methylamino)ethyl]amino}pyridin-2-yl)quinoline-4-carboxamide] | 27 | 21 | 69 | 127 | 145 | 133 | 5100 | 122 | 1990 | 220 | 378 | 7640 | 111 | 158 | 228 | 7600 | 141 | 619 |
| CCn1ncc(CN(C)C(=O)c2cc(-c3ccc(NC4CN(C)C4)c(C)n3)nc3ccc(Cl)cc23)c1C [Compound 480] | 19.5 | 17.1 | 116 | 52 | 90.5 | 147 | 10000 | 110 | 524 | 344 | 546 | 1810 | 198 | 174 | 126 | 10000 | 234 | 480 |
| CCc1noc(CN(C)C(=O)c2cc(-c3ccc(NCCNC)c(C)n3)nc3ccc(Cl)cc23)c1C [Compound 537] | 50.4 | 32.8 | 116 | 125 | 217 | 197 | 4060 | 224 | 704 | 434 | 748 | 1600 | 370 | 344 | 322 | 10000 | 494 | 849 |
| CCc1ncc(CN(C)C(=O)c2cc(-c3ccc(NCCN(C)C)c(C)n3)nc3ccc(Cl)cc23)n1C [Compound 577] | 31.2 | 42.9 | 51 | 53.5 | 102 | 111 | 1190 | 132 | 1200 | 240 | 997 | 896 | 78 | 199 | 168 | 10000 | 427 | 461 |
